Common to all, as to assay: inhibition of tumour cell growth, NCI panel, 48 h
Experiment [1] relates to SK-MEL-5.
In experiment [2] the test system is MDA-MB-231.
In experiment [3] the test system is HCT-116.
The subject of experiment [4] is NCI/ADR-RES.
The test system of experiment [5] is MDA-N.
Experiment [6] deals with UO-31.
The test system of experiment [7] is A549.
Experiment [8] has as its system SF-539.
Experiment [9] deals with M14.
The test system of experiment [10] is HT-29.
Experiment [11] deals with HOP-92.
Experiment [12] relates to CAKI-1.
Experiment [13] concerns SN12C.
The test system of experiment [14] is MOLT-4.
Experiment [15] concerns SK-MEL-28.
Experiment [16] relates to SK-MEL-2.
The subject of experiment [17] is MCF7.
The subject of experiment [18] is MDA-MB-435.
Experiment [19] relates to OVCAR-4.
Experiment [20] concerns KM12.

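Growth conditions: 96-well plates. Treatment: test compound, 48 hours, 5 concentrations. Analysis: linear interpolation between bracketing concentrations; unreached endpoints set to highest concentration. GI50 = concentration required for 50% inhibition of growth.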 The source made the active and inactive calls. Rule as the data show it: active = GI50 up to about 1.1 µM and inactive = higher.

As to `COc1ccc2c(c1)-c1nc(=S)n(CCCN(C)C)c3ccc([N+](=O)[O-])c(c13)N2`, the GI50 in experiment [1] was 1.14 µM (inactive); in experiment [2] it was 0.687 µM (active); in experiment [3] it was 0.224 µM (active); in [4] it was 1.25 µM (inactive); in [5], 0.815 µM (active); in [6], 0.49 µM (active). Moreover, the GI50 in experiment [7] was 0.363 µM (active); in experiment [8], 0.589 µM (active); in [9], 8.26 µM (inactive); in experiment [10], 0.261 µM (active); in experiment [11], 2.15 µM (inactive); in experiment [12] it was 1.68 µM (inactive). Moreover, the GI50 was 0.582 µM (active) in [13]; 0.141 µM (active) in experiment [14]; 1.13 µM (inactive) in [15]; 14.7 µM (inactive) in [16]; 0.437 µM (active) in [17]; 1.97 µM (inactive) in experiment [18]. The values for the GI50 in experiment [19] and in [20] were 1.13 µM (inactive) and 0.543 µM (active), respectively.

These data come from ChEMBL document CHEMBL1201862, “PubChem BioAssay data set” (2004).
